Counter-ions that a name gives are not always drawn.

The target in this assay is human TRPV1 (Homo sapiens (Human), UniProt Q8NER1). Conditions: read-out: IC50 (μM), antagonist effect against human TRPV1; CHO cells expressing human TrpV1; stimulated with 2.5 μM NADA (EC80); mean of at least three independent experiments.
human TRPV1, sequence (Q8NER1 whole entry): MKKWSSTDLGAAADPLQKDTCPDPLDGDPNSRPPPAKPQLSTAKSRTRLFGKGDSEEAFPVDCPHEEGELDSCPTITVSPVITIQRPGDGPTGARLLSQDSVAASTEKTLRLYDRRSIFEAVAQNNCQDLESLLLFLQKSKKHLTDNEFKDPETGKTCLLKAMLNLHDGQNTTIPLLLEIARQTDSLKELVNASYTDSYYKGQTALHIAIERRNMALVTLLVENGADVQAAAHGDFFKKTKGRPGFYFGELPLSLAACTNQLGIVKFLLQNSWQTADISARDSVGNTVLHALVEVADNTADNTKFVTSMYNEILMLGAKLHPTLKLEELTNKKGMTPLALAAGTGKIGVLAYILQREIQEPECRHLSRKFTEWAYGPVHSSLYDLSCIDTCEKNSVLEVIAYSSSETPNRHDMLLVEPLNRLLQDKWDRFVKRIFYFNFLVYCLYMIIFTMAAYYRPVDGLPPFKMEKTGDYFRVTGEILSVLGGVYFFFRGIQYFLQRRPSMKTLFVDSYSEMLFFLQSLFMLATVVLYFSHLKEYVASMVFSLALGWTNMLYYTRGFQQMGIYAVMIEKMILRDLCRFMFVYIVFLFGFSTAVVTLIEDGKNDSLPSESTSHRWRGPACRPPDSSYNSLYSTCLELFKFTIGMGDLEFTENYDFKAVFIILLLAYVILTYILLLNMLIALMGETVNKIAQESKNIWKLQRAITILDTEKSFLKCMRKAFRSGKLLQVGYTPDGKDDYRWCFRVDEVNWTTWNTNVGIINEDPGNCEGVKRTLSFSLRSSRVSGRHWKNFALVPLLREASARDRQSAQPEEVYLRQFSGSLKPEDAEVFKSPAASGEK
Description: Chinese Hamster Ovary (CHO) cells transfected to express human TrpV1 receptor (which are herein referred to as CHO-huTrpV1 cells), were grown in F-12 Ham's Nutrient Mixture media (HyClone SH30026.01) supplemented with 10% Fetal Bovine Serum (Invitrogen #26140-079), 1% Antibiotic/antimycotic (Invitrogen #15240-062) and 500 ug/mL geneticin (ThermoFisher scientific #1031035). Cells were grown in T-75 flasks at 37° C. incubator with 5% CO2. The cells were passaged twice a week at a ratio of 1:10 to 1:20 to maintain steady growth. For experimentation, cells were harvested at approximately 80% confluency and plated onto 384 well black cell culture plates (cat #781091, Greinier Bio-One Inc.) at 15,000 cells per well in 20 μl media and grown overnight.
The loading dye was prepared following instruction of Calcium 6 assay kit (Molecular Probes, #R8190): 10 ml buffer from bottle B was added to 1 vial of bottle A (adapted to room temperature from −20° C.) and mixed well, then 2.5 mM of fresh prepared probenecid, was added and mixed well. 20 μl/well of loading dye was added on top of the cells, and incubated at 37° C. for 1 hour 30 min.
Assay buffer preparation: 1×HBSS, 2 mM HEPES, 0.1% BSA plus 2.5 mM freshly prepared probenecid (Invitrogen, #P36400). 25 μl/well assay buffer in 384 well clear plate (cat #782281, Greiner Bio-one) was dispensed with buffer distributor (Multidrop ComB1 from Thermo Scientific). The compounds were in 384 Echo plate (cat #LPL0200, Labcyte) and the starting concentration of compound was 10 mM, then 1 to 3 serial dilution in 100% DMSO, 8 ul/well). 125 nl compounds was transferred to the 384 well plate containing 25 μl/well buffer with Echo® 555 Liquid Handler (Labcyte), such that the compound concentration was 5 fold of final concentration. The plate was shook slowly at 40 rpm/min for 10 min to mix. 10 μl of 5 fold compound in the buffer was transferred to the cell plate (containing 20 μl cells and 20 μl dye) using Vertical Pipetting Station 384ST (Agilent Technologies). Six fold of final concentration of NADA (N-arachidonyl dopamine, cat #A8848, Sigma) in the assay buffer was prepared and 30 μl/well was distributed in 384 well clear plate.
After compounds were added to the cell plate with loading dye, within 10-15 minutes, cell plate and plate containing NADA was placed into the FLIPR (Fluorescent Imaging Plate Reader) instrument (Tetra System, Molecular device). The TRPV1 receptor was stimulated by application of 10 μl per well of NADA. For testing the effect of compounds for possible antagonism, 2.5 μM NADA was used at the EC80 concentration.
For determination of antagonist IC50 values (concentration of antagonist that inhibits response to NADA by 50%), at least 10 antagonist concentration were measured in triplicate. The response in the presence of the antagonist was calculated as a percentage of the control response to NADA and was plotted against the concentration of the antagonist. The IC50 was estimated by non-linear regression analysis to sigmoidal-logistic curves by HELIOS (PROD 2) system. These values were averaged (means and standard error of the mean) for at least three independent experiments.
Turning to `COc1c(F)cc(O[C@H]2C[C@H](NCc3c(F)ccc4cnccc34)C2)cc1F` [Example 49, (1r,3r)-3-(3,5-difluoro-4-methoxyphenoxy)-N-((6-fluoroisoquinolin-5-yl)methyl)cyclobutan-1-amine], the IC50 came to 0.0163 µM.

Turning to `Fc1ccc(O[C@H]2C[C@H](NCc3cccc4cncnc34)C2)cc1C(F)(F)F` [Example 87, (1r,3r)-3-(4-fluoro-3-(trifluoromethyl)phenoxy)-N-(quinazolin-8-ylmethyl)cyclobutan-1-amine, HCl], the IC50 was 0.321 µM.

Turning to `Fc1ccc2cnccc2c1CN[C@H]1C[C@H](Oc2ccnc(C(F)(F)F)c2)C1` [Example 56, (1r,3r)-N-((6-fluoroisoquinolin-5-yl)methyl)-3-((2-(trifluoromethyl)pyridin-4-yl)oxy)cyclobutan-1-amine], the IC50 is 0.119 µM.

Consider `Fc1ccc2cnccc2c1CN[C@H]1C[C@H](Oc2cnc(Cl)c(C(F)(F)F)c2)C1` [Example 62, (1r,3r)-3-((6-chloro-5-(trifluoromethyl)pyridin-3-yl)oxy)-N-((6-fluoroisoquinolin-5-yl)methyl)cyclobutan-1-amine], for which the IC50 turned out to be 0.336 µM.

With `Cc1ccc2cnccc2c1CN[C@H]1C[C@H](Oc2ccc(F)c(C(F)(F)F)c2)C1` [Example 1, (1r,3r)-3-(4-fluoro-3-(trifluoromethyl)phenoxy)-N-((6-methylisoquinolin-5-yl)methyl)cyclobutan-1-amine, HCl], the IC50 worked out at 0.0208 µM.

`Fc1cc(O[C@H]2C[C@H](NCc3c(F)ccc4cnccc34)C2)cnc1F` [Example 57, (1r,3r)-3-((5,6-difluoropyridin-3-yl)oxy)-N-((6-fluoroisoquinolin-5-yl)methyl)cyclobutan-1-amine]: the IC50 turned out to be 0.656 µM.

Take `Nc1cc2c(CN[C@H]3C[C@H](Oc4ccc(F)cc4F)C3)c(F)cc(CO)c2cn1` [Example 19, (3-amino-5-((((1r,3r)-3-(2,4-difluorophenoxy)cyclobutyl)amino)methyl)-6-fluoroisoquinolin-8-yl)methanol, HCl]: the IC50 amounted to 0.0162 µM.

With `OCc1cc(F)c(CN[C@H]2C[C@@H](Oc3ccc(F)c(C(F)(F)F)c3)C2)c2ccncc12` [Example 89, (6-fluoro-5-((((1s,3s)-3-(4-fluoro-3-(trifluoromethyl)phenoxy)cyclobutyl)amino)methyl)isoquinolin-8-yl)methanol, HCl], the IC50 was 0.44 µM.

Consider `Fc1ccc(O[C@H]2C[C@H](NCc3c(F)ccc4cnccc34)C2)cc1C(F)F` [Example 91, (1r,3r)-3-(3-(difluoromethyl)-4-fluorophenoxy)-N-((6-fluoroisoquinolin-5-yl)methyl)cyclobutan-1-amine, HCl], for which the IC50 stood at 0.0399 µM.

As to `Fc1ccc(CO[C@H]2C[C@H](NCc3c(F)ccc4cnccc34)C2)c(F)c1` [Example 105, (1r,3r)-3-((2,4-difluorobenzyl)oxy)-N-((6-fluoroisoquinolin-5-yl)methyl)cyclobutan-1-amine], the IC50 is 1.28 µM.

As for `Fc1ccc(O[C@H]2C[C@H](NCc3c(F)ccc4cnccc34)C2)cc1OC(F)(F)F` [Example 38, (1r,3r)-3-(4-fluoro-3-(trifluoromethoxy)phenoxy)-N-((6-fluoroisoquinolin-5-yl)methyl)cyclobutan-1-amine, HCl], the IC50 came to 0.0514 µM.

For the compound `Fc1ccc2cnccc2c1CN[C@H]1C[C@H](Oc2cccc(OC(F)(F)F)c2)C1` [Example 37, (1r,3r)-N-((6-fluoroisoquinolin-5-yl)methyl)-3-(3-(trifluoromethoxy)phenoxy)cyclobutan-1-amine, HCl], the IC50 amounted to 0.0813 µM.

Consider `Fc1ccc2ccc(O[C@H]3C[C@H](NCc4c(F)ccc5cnccc45)C3)cc2c1` [Example 32, (1r,3r)-N-((6-fluoroisoquinolin-5-yl)methyl)-3-((7-fluoronaphthalen-2-yl)oxy)cyclobutan-1-amine, HCl], for which the IC50 stood at 0.102 µM.

As to `COc1c(F)cc(O[C@H]2C[C@H](NCc3c(F)cc(CO)c4cnccc34)C2)cc1F` [Example 48, (5-((((1r,3r)-3-(3,5-difluoro-4-methoxyphenoxy)cyclobutyl)amino)methyl)-6-fluoroisoquinolin-8-yl)methanol], the IC50 stood at 0.0345 µM.

Take `Fc1ccc(O[C@H]2C[C@H](NCc3c(F)ccc4cnccc34)C2)cc1C(F)(F)F` [Example 3, (1r,3r)-3-(4-fluoro-3-(trifluoromethyl)phenoxy)-N-((6-fluoroisoquinolin-5-yl)methyl)cyclobutan-1-amine, HCl]: the IC50 was determined as 0.00344 µM.

Consider `OCc1cc(F)c(CN[C@H]2C[C@H](Oc3ccc4c(c3)OC(F)(F)O4)C2)c2ccncc12` [Example 47, (5-((((1r,3r)-3-((2,2-difluorobenzo[d][1,3]dioxol-5-yl)oxy)cyclobutyl)amino)methyl)-6-fluoroisoquinolin-8-yl)methanol, HCl], for which the IC50 came to 0.0238 µM.

For the compound `Fc1ccc(O[C@H]2C[C@H](NCc3cccc4cnccc34)C2)cc1Cl` [Example 28, (1r,3r)-3-(3-chloro-4-fluorophenoxy)-N-(isoquinolin-5-ylmethyl)cyclobutan-1-amine, HCl], the IC50 is 0.28 µM.

With `Fc1ccc2cnccc2c1CN[C@H]1C[C@H](Oc2ccnc(C(F)F)c2)C1` [Example 111, (1r,3r)-3-((2-(difluoromethyl)pyridin-4-yl)oxy)-N-((6-fluoroisoquinolin-5-yl)methyl)cyclobutan-1-amine], the IC50 amounted to 1.65 µM.

On to `N#Cc1cc(O[C@H]2C[C@H](NCc3c(F)ccc4cnccc34)C2)ccc1C(F)(F)F` [Example 59, 5-((1r,3r)-3-(((6-fluoroisoquinolin-5-yl)methyl)amino)cyclobutoxy)-2-(trifluoromethyl)benzonitrile], for which the IC50 was found to be 0.0758 µM.

Consider `Fc1ccc2cnccc2c1CN[C@H]1C[C@H](Oc2ccc3c(c2)OC(F)(F)C(F)(F)O3)C1` [Example 39, (1r,3r)-N-((6-fluoroisoquinolin-5-yl)methyl)-3-((2,2,3,3-tetrafluoro-2,3-dihydrobenzo[b][1,4]dioxin-6-yl)oxy)cyclobutan-1-amine, HCl], for which the IC50 was determined as 0.0108 µM.

As to `C[C@]1(NCc2c(F)ccc3cnccc23)C[C@@H](Oc2ccc(F)c(C(F)(F)F)c2)C1` [Example 68 cis, (1s,3s)-3-(4-fluoro-3-(trifluoromethyl)phenoxy)-N-((6-fluoroisoquinolin-5-yl)methyl)-1-methylcyclobutan-1-amine], the IC50 came to 0.333 µM.

With `Fc1cc(F)cc(O[C@H]2C[C@H](NCc3c(F)ccc4cnccc34)C2)c1` [Example 82, (1r,3r)-3-(3,5-difluorophenoxy)-N-((6-fluoroisoquinolin-5-yl)methyl)cyclobutan-1-amine, HCl], the IC50 came out at 0.169 µM.

Regarding `Fc1cccc(O[C@H]2C[C@H](NCc3c(F)ccc4cnccc34)C2)c1F` [Example 35, (1r,3r)-3-(2,3-difluorophenoxy)-N-((6-fluoroisoquinolin-5-yl)methyl)cyclobutan-1-amine], the IC50 is 0.128 µM.

As for `FCc1cc(O[C@H]2C[C@H](NCc3c(F)ccc4cnccc34)C2)ccc1F` [Example 41, (1r,3r)-3-(4-fluoro-3-(fluoromethyl)phenoxy)-N-((6-fluoroisoquinolin-5-yl)methyl)cyclobutan-1-amine, HCl], the IC50 was 0.09 µM.

For `Fc1ccc2cnccc2c1CN[C@H]1C[C@H](Oc2ccc(OC(F)F)cc2)C1` [Example 30, (1r,3r)-3-(4-(difluoromethoxy)phenoxy)-N-((6-fluoroisoquinolin-5-yl)methyl)cyclobutan-1-amine, HCl], the IC50 is 0.186 µM.

As for `CC(O)c1cc(F)c(CN[C@H]2C[C@H](Oc3ccc(F)c(C(F)(F)F)c3)C2)c2ccncc12` (stereo partly shown) [Example 8, 1-(6-fluoro-5-((((1r,3r)-3-(4-fluoro-3-(trifluoromethyl)phenoxy)cyclobutyl)amino)methyl)isoquinolin-8-yl)ethan-1-ol, HCl], the IC50 is 0.165 µM.

On to `OCc1cc(F)c(CN[C@H]2C[C@H](Oc3ccc(F)c(C(F)(F)F)c3)C2)c2ccncc12` [Example 6, (6-fluoro-5-((((1r,3r)-3-(4-fluoro-3-(trifluoromethyl)phenoxy)cyclobutyl)amino)methyl)isoquinolin-8-yl)methanol, HCl], for which the IC50 was found to be 0.00725 µM.

Regarding `CC(C)(C)c1c(F)cc(O[C@H]2C[C@H](NCc3c(F)cc(CO)c4cnccc34)C2)cc1F` [Example 45, (5-((((1r,3r)-3-(4-(tert-butyl)-3,5-difluorophenoxy)cyclobutyl)amino)methyl)-6-fluoroisoquinolin-8-yl)methanol], the IC50 was found to be 0.0188 µM.

As for `COc1ncc(O[C@H]2C[C@H](NCc3c(F)ccc4cnccc34)C2)cc1C(F)(F)F` [Example 92, (1r,3r)-N-((6-fluoroisoquinolin-5-yl)methyl)-3-((6-methoxy-5-(trifluoromethyl)pyridin-3-yl)oxy)cyclobutan-1-amine, HCl], the IC50 is 0.58 µM.

In the case of `Fc1ccc2cnccc2c1CN[C@H]1C[C@H](Oc2nc(C(F)(F)F)cs2)C1` [Example 107, (1r,3r)-N-((6-fluoroisoquinolin-5-yl)methyl)-3-((4-(trifluoromethyl)thiazol-2-yl)oxy)cyclobutan-1-amine], the IC50 came to 1.91 µM.

For the compound `OCC[C@@H](O)c1cc(F)c(CN[C@H]2C[C@H](Oc3ccc(F)c(C(F)(F)F)c3)C2)c2ccncc12` (single isomer, unassigned; peak 2) [Example 9 peak 2], the IC50 stood at 0.0137 µM.

With `Fc1ccc(O[C@H]2C[C@H](NCc3c(F)ccc4cnccc34)C2)c(F)n1` [Example 55, (1r,3r)-3-((2,6-difluoropyridin-3-yl)oxy)-N-((6-fluoroisoquinolin-5-yl)methyl)cyclobutan-1-amine], the IC50 stood at 0.352 µM.

On to `Fc1ccc2cnccc2c1CN[C@H]1C[C@H](Oc2cccc(C3(C(F)(F)F)CCO3)c2)C1` (stereo partly shown) [Example 44, (1r,3r)-N-((6-fluoroisoquinolin-5-yl)methyl)-3-(3-(2-(trifluoromethyl)oxetan-2-yl)phenoxy)cyclobutan-1-amine], for which the IC50 came out at 0.0326 µM.

`OC[C@H](O)c1cc(F)c(CN[C@H]2C[C@H](Oc3ccc(F)c(C(F)(F)F)c3)C2)c2ccncc12` (single isomer, unassigned; peak 2) [Example 7 peak 2]: the IC50 amounted to 0.0063 µM.

The record behind these values is patent US11845730B2, “1,3-substituted cyclobutyl derivatives and uses thereof” (Novartis AG, priority 2021, dated 2023).
